Measurements as given in article PMC7600127, “Peptide-Based TNF-α-Binding Decoy Therapy Mitigates Lipopolysaccharide-Induced Liver Injury in Mice” (Pharmaceuticals, 2020).

Tested on: LPS-induced liver injury
Assay: Exogenous TNF-α counteraction of SEM18 in LPS-treated mice
Assay type: in vivo, Balb/cJ mice
Conditions: LSEM + TNF-α group vs LSEM group; TNF-α 0.3 mg/kg then 3 x 0.15 mg/kg i.p. with SEM18; 24 h after LPS 15 mg/kg; n = 5
Protocol: Exogenous TNF-α (recombinant mouse TNF-α; R&D Systems, Minneapolis, MN, USA) was used to confirm whether the therapeutic effects of SEM18 peptide were mediated by decreasing TNF-α binding to TNFR1. A set of mice (n = 5, designated as the LSEM + TNF-α group) were treated with LPS as described earlier. Two hours after LPS, exogenous TNF-α (0.3 mg/kg i.p.) was administered, followed by SEM18 (0.3 mg/kg, i.p.). Supplemental doses of exogenous TNF-α administration (0.15 mg/kg, i.p.) and SEM18 (0.15 mg/kg, i.p.) were administered every 2 h three times. These mice were closely monitored for 24 h (starting from LPS administration). All mice survived the experiment. […]
Figure 7 Exogenous tumor necrosis factor (TNF)-α counteracts the effects of SEM18 peptide. (A) Binding of TNF-α to TNF receptor 1, as measured at 24 h after lipopolysaccharide (LPS) administration using immunofluorescence staining of proximity ligation assay (PLA). (B) Plasma concentrations of aspartate aminotransferase (AST) and alanine aminotransferase (ALT) and the wet/dry (W/D) weight ratio of the liver tissues, as measured at 24 h after LPS administration. […] For apoptosis analysis, liver tissues were assayed using the terminal deoxynucleotidyl transferase dUTP nick-end labeling (TUNEL) method and the mean TUNEL-positive cell in liver tissues (per 0.25 mm^2) was calculated, as measured at 24 h after LPS administration. […]

recombinant mouse TNF-α [exogenous TNF-α]
effect of exogenous TNF-α on the therapeutic effects of SEM18 peptide: counteracting the therapeutic effects of SEM18 peptide
